{"source": "patent US8383125B2", "about": "“Antimicrobial protein” (Agriculture Victoria Services Pty, Limited, priority 2006, dated 2013)", "key": {"[1]": {"test_system": "A. baumannii strain FADDI 005 (ATCC 19606 derivative)", "assay_type": "cell-based, Acinetobacter baumannii", "conditions": "17 hr at 35° C.", "description": "(§1) The MIC values of SEQ ID NO: 2 and SEQ ID NO: 19 were also determined against a range of multidrug-resistant isolates, including clinical and laboratory strains. Peptides, maintained at −20° C. in solid form for storage purposes, were subsequently dissolved in 0.01% (v/v) acetic acid (Sigma-Aldrich) to a stock concentration of […]. The stock solutions were made fresh for each experiment. Eighteen (18) bacterial isolates obtained from the Facility for Anti-Infective Drug Development and Innovation, Victoria, Australia (FADDI) as listed in Table 2 were maintained as stock cultures in Tryptic Soya Broth plus 20% (v/v) glycerol at a temperature of −80° C., and subcultured onto Nutrient Agar for each experiment. MIC values were determined in cation-adjusted Mueller-Hinton broth (CAMHB) and Mueller-Hinton broth (MHB) using standard broth micro-dilution methods.\nPseudomonas aeruginosa (ATCC 27853) and S. aureus (ATCC 43300) were included as quality controls in experiments. P. aeruginosa strains FADDI 001 and FADDI 002 are mucoid; and P. aeruginosa strains FADDI 003 and FADDI 004 are non-mucoid. P. aeruginosa strain FADDI 003 also has a small colony morphology. The A. baumannii strain FADDI 005 is a colistin-resistant isolate obtained from Mueller-Hinton agar containing 10 mg/L colistin."}, "[2]": {"test_system": "tammar wallaby erythrocytes", "assay_type": "cell-based", "description": "The toxicity of the antimicrobial peptides was determined using a haemolytic assay. In particular, the hemolytic activity of the peptides was determined using tammar wallaby erythrocytes. Fresh erythrocytes were harvested from heparinized blood taken from a tammar wallaby. Erythrocytes were harvested by centrifugation for 3 min at 3000 g. Erythrocytes were then washed three times with PBS (pH 7.4) until the supernatant was essentially colourless. 20 μl two fold serial dilutions of the peptide were mixed with the same volume of erythrocytes in solution 2%) in PBS of each well of a 96-plate. 80 μl PBS was added to each well after the plate was incubated at 37° C. for one hour. Plates were then centrifuged at 3000 g for 5 min. 90 μl of the resulting supernatant was transferred to a flat-bottom microtiter plate and haemoglobin release was monitored by measuring the absorbance at 414 nm with an ELISA plate reader. […] Each sample was performed in triplicate. Percentage hemolysis was calculated by the following formula: [(OD414 peptide−OD414 buffer)/OD414 complete hemolysis−OD414 buffer)]×100%."}, "[3]": {"test_system": "Bacillus subtilis", "assay_type": "cell-based", "conditions": "Table 1"}, "[4]": {"test_system": "Enterococcus faecium (ATCC 700221)", "assay_type": "cell-based", "conditions": "ATCC 700221, 17 h", "description": "as §1"}, "[5]": {"test_system": "Staphylococcus aureus (ATCC 700698)", "assay_type": "cell-based", "conditions": "ATCC 700698, 17 h", "description": "as §1"}, "[6]": {"test_system": "P. aeruginosa strain FADDI 001", "assay_type": "cell-based, Pseudomonas aeruginosa", "conditions": "strain FADDI 001, 17 h", "description": "as §1"}, "[7]": {"test_system": "P. aeruginosa strain FADDI 003", "assay_type": "cell-based, Pseudomonas aeruginosa", "conditions": "strain FADDI 003, 17 h", "description": "as §1"}, "[8]": {"test_system": "P. aeruginosa strain FADDI 004", "assay_type": "cell-based, Pseudomonas aeruginosa", "conditions": "strain FADDI 004, 17 h", "description": "as §1"}, "[9]": {"test_system": "P. aeruginosa strain FADDI 002", "assay_type": "cell-based, Pseudomonas aeruginosa", "conditions": "strain FADDI 002, 17 h", "description": "as §1"}, "[10]": {"test_system": "E. coli DH5α", "conditions": "5 μl of 250 μg/ml solutions of each peptide; E. coli", "method": "Briefly, approximately 4×10^6 of mid-logarithmic-phase organisms were grown on plates in 11 ml of warm 0.8% agarose containing 0.03% (w/v) Tryticase soy broth (TSB) powder, with or without 100 mM NaCl, buffered with 10 mM sodium phosphate, pH 7.4. The test peptide was serially diluted in acidified water (0.01% acetic acid), and 5 μl of diluted peptide sample was loaded in a 2.5 diameter well in the agarose. A 10 ml overlay gel composed of 6% TSB, 0.8% agarose and 10 mM sodium phosphate buffer (pH 7.4) was poured into each well. Plates were then incubated overnight to allow the surviving organisms to form microcolonies. The clear zone were measured to the nearest 0.1 mm using a magnified transilluminator and expressed in units (1 mm=10 U) after subtracting the well diameter. The minimum inhibitory concentration (MIC) is defined by the χ intercept of a regression line through zone diameters obtained from a series of serially diluted peptide samples."}, "[11]": {"test_system": "A. baumannii strain FADDI 007", "assay_type": "cell-based, Acinetobacter baumannii", "conditions": "strain FADDI 007, 17 h", "description": "as §1"}, "[12]": {"test_system": "A. baumannii strain FADDI 006", "assay_type": "cell-based, Acinetobacter baumannii", "conditions": "strain FADDI 006, 17 h", "description": "as §1"}, "[13]": {"test_system": "Candida albicans (ATCC 753)", "assay_type": "cell-based", "conditions": "Table 1"}, "[14]": {"test_system": "S. aureus (ATCC 43300)", "assay_type": "cell-based, Staphylococcus aureus", "conditions": "ATCC 43300, 17 h", "description": "as §1"}, "[15]": {"test_system": "S. aureus 700699", "assay_type": "cell-based, Staphylococcus aureus", "conditions": "700699, 17 h", "description": "as §1"}, "[16]": {"test_system": "S. aureus strain FADDI 011", "assay_type": "cell-based, Staphylococcus aureus", "conditions": "strain FADDI 011, 17 h", "description": "as §1"}, "[17]": {"test_system": "Streptococcus equi equi (ATCC 9527)", "assay_type": "cell-based", "conditions": "Table 1"}, "[18]": {"test_system": "K. pneumoniae strain FADDI 010", "assay_type": "cell-based, Klebsiella pneumoniae", "conditions": "strain FADDI 010, 17 h", "description": "as §1"}, "[19]": {"test_system": "K. pneumoniae strain FADDI 008", "assay_type": "cell-based, Klebsiella pneumoniae", "conditions": "strain FADDI 008, 17 h", "description": "as §1"}, "[20]": {"test_system": "K. pneumoniae strain FADDI 009", "assay_type": "cell-based, Klebsiella pneumoniae", "conditions": "strain FADDI 009, 17 h", "description": "as §1"}, "[21]": {"test_system": "K. pneumoniae strain FADDI 009", "parameters": "key: resistant (R); susceptible (S)", "conditions": "Clinical specimen; cited from earlier work"}, "[22]": {"test_system": "A. baumannii strain FADDI 007", "parameters": "key: resistant (R); susceptible (S)", "conditions": "Clinical specimen; cited from earlier work"}, "[23]": {"test_system": "P. aeruginosa strain FADDI 003", "parameters": "key: resistant (R); susceptible (S)", "conditions": "Clinical specimen; cited from earlier work"}, "[24]": {"test_system": "A. baumannii strain FADDI 006", "parameters": "key: resistant (R); susceptible (S)", "conditions": "Clinical specimen; cited from earlier work"}, "[25]": {"test_system": "Klebsiella pneumoniae (ATCC 13883)", "parameters": "key: resistant (R); susceptible (S)", "conditions": "Reference isolate; cited from earlier work"}, "[26]": {"test_system": "K. pneumoniae strain FADDI 010", "parameters": "key: resistant (R); susceptible (S)", "conditions": "Clinical specimen; cited from earlier work"}, "[27]": {"test_system": "Pseudomonas aeruginosa (ATCC 27853)", "parameters": "key: resistant (R); susceptible (S)", "conditions": "Reference isolate; cited from earlier work"}, "[28]": {"test_system": "Acinetobacter baumannii (ATCC 19606)", "parameters": "key: resistant (R); susceptible (S)", "conditions": "Reference isolate; cited from earlier work"}, "[29]": {"test_system": "P. aeruginosa strain FADDI 004", "parameters": "key: resistant (R); susceptible (S)", "conditions": "Clinical specimen; cited from earlier work"}, "[30]": {"test_system": "A. baumannii strain FADDI 005 (ATCC 19606 derivative)", "parameters": "key: resistant (R); susceptible (S)", "conditions": "Laboratory prepared; obtained from Mueller-Hinton agar containing 10 mg/L colistin; cited from earlier work"}, "[31]": {"test_system": "P. aeruginosa strain FADDI 002", "parameters": "key: resistant (R); susceptible (S)", "conditions": "Clinical specimen; cited from earlier work"}, "[32]": {"test_system": "P. aeruginosa strain FADDI 001", "parameters": "key: resistant (R); susceptible (S)", "conditions": "Clinical specimen; cited from earlier work"}, "[33]": {"test_system": "K. pneumoniae strain FADDI 008", "parameters": "key: resistant (R); susceptible (S)", "conditions": "Clinical specimen; cited from earlier work"}}, "note": "Read-outs that look alike come from different tables or passages of the source. Where no end group is shown, it is not given here.", "data": [{"substance": "KRGLWESLKRKATKLGDDIRNTLRNFKIKFPVPRQ-NH2 [SEQ ID NO: 19]", "values": [{"measurement": "MIC", "setting": "[1]; CAMHB (10.0 mg/L Mg2+ and 24 mg/L Ca2+)", "value": 8, "unit": "µg/mL"}, {"measurement": "MIC", "setting": "[1]; MHB (less than 5 mg/L Mg2+ and 24 mg/L Ca2+)", "value": 16, "unit": "µg/mL"}, {"measurement": "haemolysis at the MIC determined in Example 1", "setting": "[2]", "value": "less than 5%"}, {"measurement": "haemolysis at the majority of concentrations tested (FIGS. 2a and 2b)", "setting": "[2]", "value": "did not cause substantial levels of haemolysis"}, {"measurement": "antimicrobial activity in words", "setting": "[3]", "value": "moderately protective"}, {"measurement": "MIC", "setting": "[4]", "value": 16, "unit": "µg/mL"}, {"measurement": "MIC", "setting": "[5]", "value": ">64", "unit": "µg/mL"}, {"measurement": "MIC", "setting": "[6]", "value": ">64", "unit": "µg/mL"}, {"measurement": "MIC", "setting": "[7]", "value": ">64", "unit": "µg/mL"}, {"measurement": "MIC", "setting": "[8]", "value": ">64", "unit": "µg/mL"}, {"measurement": "MIC", "setting": "[9]", "value": ">64", "unit": "µg/mL"}, {"measurement": "radial clear zone compared to LL-37 (FIG. 3)", "setting": "[10]", "value": "larger radial clear zone"}, {"measurement": "MIC", "setting": "[11]", "value": 16, "unit": "µg/mL"}, {"measurement": "MIC", "setting": "[12]", "value": ">64", "unit": "µg/mL"}, {"measurement": "antimicrobial activity in words", "setting": "[13]", "value": "Weaker antimicrobial activity"}, {"measurement": "MIC", "setting": "[14]", "value": ">64", "unit": "µg/mL"}, {"measurement": "MIC", "setting": "[15]", "value": ">64", "unit": "µg/mL"}, {"measurement": "MIC", "setting": "[16]", "value": ">64", "unit": "µg/mL"}, {"measurement": "antimicrobial activity in words", "setting": "[17]", "value": "moderately protective"}, {"measurement": "MIC", "setting": "[18]", "value": ">64", "unit": "µg/mL"}, {"measurement": "MIC", "setting": "[19]", "value": ">64", "unit": "µg/mL"}, {"measurement": "MIC", "setting": "[20]", "value": ">64", "unit": "µg/mL"}]}, {"substance": "colistin", "values": [{"measurement": "Colistin resistant (R) or susceptible (S)", "setting": "[21]", "value": "R"}, {"measurement": "Colistin resistant (R) or susceptible (S)", "setting": "[22]", "value": "S"}, {"measurement": "Colistin resistant (R) or susceptible (S)", "setting": "[23]", "value": "R"}, {"measurement": "Colistin resistant (R) or susceptible (S)", "setting": "[24]", "value": "R"}, {"measurement": "Colistin resistant (R) or susceptible (S)", "setting": "[25]", "value": "S"}, {"measurement": "Colistin resistant (R) or susceptible (S)", "setting": "[26]", "value": "R"}, {"measurement": "Colistin resistant (R) or susceptible (S)", "setting": "[27]", "value": "S"}, {"measurement": "Colistin resistant (R) or susceptible (S)", "setting": "[28]", "value": "S"}, {"measurement": "Colistin resistant (R) or susceptible (S)", "setting": "[29]", "value": "R"}, {"measurement": "Colistin resistant (R) or susceptible (S)", "setting": "[30]", "value": "R"}, {"measurement": "Colistin resistant (R) or susceptible (S)", "setting": "[31]", "value": "S"}, {"measurement": "Colistin resistant (R) or susceptible (S)", "setting": "[32]", "value": "S"}, {"measurement": "Colistin resistant (R) or susceptible (S)", "setting": "[33]", "value": "S"}]}]}
